Test results from PubChem BioAssay (NCI).
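Values below derive from 48-hour exposures of cells grown in 96-well plates, with endpoints linearly interpolated between the two concentrations bracketing the appropriate inhibition level. The concentration for full growth arrest is given as TGI.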

How the values were obtained:
Assay in all cases: NCI tumour cell line growth inhibition, 48 h
[1] = tested on: HCT-15 colon
[2] = tested on: ACHN renal
[3] = tested on: OVCAR-5 ovarian
[4] = tested on: U251 CNS
[5] = tested on: MOLT-4 leukemia
[6] = tested on: CAKI-1 renal
[7] = tested on: T-47D breast
[8] = tested on: MDA-MB-231 breast
[9] = tested on: SK-OV-3 ovarian
[10] = tested on: SNB-75 CNS
[11] = tested on: MALME-3M melanoma
[12] = tested on: LOX IMVI melanoma
[13] = tested on: NCI-H460 lung
[14] = tested on: MCF7 breast
[15] = tested on: 786-0 renal
[16] = tested on: MDA-N
[17] = tested on: M14 melanoma
[18] = tested on: A549 NSCLC
[19] = tested on: TK-10 renal
[20] = tested on: OVCAR-8 ovarian
[21] = tested on: SF-295 CNS
[22] = tested on: OVCAR-4 ovarian
[23] = tested on: SW-620 colon
[24] = tested on: RXF 393 renal
[25] = tested on: SR leukemia
[26] = tested on: CCRF-CEM leukemia
[27] = tested on: SN12C renal
[28] = tested on: SK-MEL-28 melanoma
[29] = tested on: KM12 colon
[30] = tested on: UACC-62 melanoma
[31] = tested on: HS 578T breast
[32] = tested on: UACC-257 melanoma
[33] = tested on: MDA-MB-435
[34] = tested on: COLO 205 colon
[35] = tested on: BT-549 breast
[36] = tested on: SF-539 CNS
[37] = tested on: RPMI-8226 leukemia
[38] = tested on: NCI-H522 lung
[39] = tested on: HOP-62 NSCLC
[40] = tested on: OVCAR-3 ovarian
[41] = tested on: EKVX NSCLC
[42] = tested on: NCI/ADR-RES ovarian
[43] = tested on: SNB-19 CNS
[44] = tested on: PC-3 prostate
[45] = tested on: UO-31 renal
[46] = tested on: SK-MEL-2 melanoma
[47] = tested on: A498 renal
[48] = tested on: HCC-2998 colon
[49] = tested on: NCI-H23 lung
[50] = tested on: SK-MEL-5 melanoma
[51] = tested on: IGROV1 ovarian
[52] = tested on: HOP-92 NSCLC
[53] = tested on: SF-268 CNS
[54] = tested on: HT29 colon
[55] = tested on: HCT-116 colon
[56] = tested on: DU-145 prostate
[57] = tested on: K-562 leukemia
[58] = tested on: NCI-H226 lung
[59] = tested on: HL-60(TB) leukemia

OC1[C@@H]2[C@@H](O)[C@H](O)[C@@H](O)N2C[C@@H]1O (stereo partly drawn)
TGI [1]: > 100 µM
TGI [2]: > 100 µM
TGI [3]: > 100 µM
TGI [4]: > 100 µM
TGI [5]: > 100 µM
TGI [6]: > 100 µM
TGI [7]: > 100 µM
TGI [8]: > 100 µM
TGI [9]: > 100 µM
TGI [10]: > 100 µM
TGI [11]: > 100 µM
TGI [12]: > 100 µM
TGI [13]: > 100 µM
TGI [14]: > 100 µM
TGI [15]: > 100 µM
TGI [16]: > 100 µM
TGI [17]: > 100 µM
TGI [18]: > 100 µM
TGI [19]: > 100 µM
TGI [20]: > 100 µM
TGI [21]: > 100 µM
TGI [22]: > 100 µM
TGI [23]: > 100 µM
TGI [24]: > 100 µM
TGI [25]: > 43.6 µM
TGI [26]: > 100 µM
TGI [27]: > 100 µM
TGI [28]: > 100 µM
TGI [29]: > 100 µM
TGI [30]: > 100 µM
TGI [31]: > 100 µM
TGI [32]: > 100 µM
TGI [33]: > 100 µM
TGI [34]: > 100 µM
TGI [35]: > 100 µM
TGI [36]: > 100 µM
TGI [37]: > 23.5 µM
TGI [38]: > 100 µM
TGI [39]: > 100 µM
TGI [40]: > 100 µM
TGI [41]: > 100 µM
TGI [42]: > 100 µM
TGI [43]: > 100 µM
TGI [44]: > 100 µM
TGI [45]: > 100 µM
TGI [46]: > 100 µM
TGI [47]: > 100 µM
TGI [48]: > 100 µM
TGI [49]: > 100 µM
TGI [50]: > 100 µM
TGI [51]: > 100 µM
TGI [52]: > 100 µM
TGI [53]: > 100 µM
TGI [54]: > 100 µM
TGI [55]: > 100 µM
TGI [56]: > 100 µM
TGI [57]: > 100 µM
TGI [58]: > 100 µM

CC(=O)O[C@H]1C[C@H]2[C@@H](OC(C)=O)/C=C3\C[C@](C)(C(=O)[C@H](O)C(=C1C)C2(C)C)[C@@H](O)C[C@@H]3OC(=O)[C@H](O)[C@H](c1ccccc1)N(C)C
TGI [1]: > 100 µM
TGI [2]: > 100 µM
TGI [3]: > 100 µM
TGI [4]: > 100 µM
TGI [5]: > 100 µM
TGI [6]: > 100 µM
TGI [7]: > 100 µM
TGI [8]: > 100 µM
TGI [9]: > 100 µM
TGI [10]: > 100 µM
TGI [11]: > 100 µM
TGI [12]: > 100 µM
TGI [13]: > 100 µM
TGI [14]: > 100 µM
TGI [15]: > 100 µM
TGI [16]: > 100 µM
TGI [17]: > 100 µM
TGI [59]: > 100 µM
TGI [18]: > 100 µM
TGI [19]: > 100 µM
TGI [20]: > 100 µM
TGI [21]: > 100 µM
TGI [22]: > 100 µM
TGI [23]: > 100 µM
TGI [24]: > 100 µM
TGI [25]: > 100 µM
TGI [26]: > 100 µM
TGI [27]: > 100 µM
TGI [28]: > 100 µM
TGI [29]: > 100 µM
TGI [30]: > 100 µM
TGI [31]: > 100 µM
TGI [32]: > 100 µM
TGI [33]: > 100 µM
TGI [34]: > 100 µM
TGI [35]: > 100 µM
TGI [36]: > 100 µM
TGI [37]: > 100 µM
TGI [38]: > 100 µM
TGI [39]: > 100 µM
TGI [40]: > 100 µM
TGI [41]: > 100 µM
TGI [42]: > 100 µM
TGI [43]: > 100 µM
TGI [44]: > 100 µM
TGI [45]: > 100 µM
TGI [47]: > 100 µM
TGI [49]: > 100 µM
TGI [50]: > 100 µM
TGI [51]: > 100 µM
TGI [52]: > 100 µM
TGI [53]: > 100 µM
TGI [55]: > 100 µM
TGI [56]: > 100 µM
TGI [57]: > 100 µM
TGI [58]: > 100 µM

C[N+](CCCl)(CCCl)Cc1cccc2cccc([N+](=O)[O-])c12
TGI [1]: > 100 µM
TGI [2]: > 100 µM
TGI [3]: > 100 µM
TGI [4]: > 100 µM
TGI [5]: > 100 µM
TGI [6]: > 100 µM
TGI [7]: > 100 µM
TGI [8]: > 100 µM
TGI [9]: > 100 µM
TGI [10]: > 100 µM
TGI [11]: > 100 µM
TGI [12]: > 100 µM
TGI [13]: > 100 µM
TGI [14]: > 100 µM
TGI [15]: > 100 µM
TGI [16]: > 100 µM
TGI [17]: > 100 µM
TGI [59]: > 100 µM
TGI [18]: > 100 µM
TGI [19]: > 100 µM
TGI [20]: > 100 µM
TGI [21]: > 100 µM
TGI [22]: > 100 µM
TGI [23]: > 100 µM
TGI [24]: > 100 µM
TGI [25]: > 100 µM
TGI [26]: > 100 µM
TGI [27]: > 100 µM
TGI [28]: > 100 µM
TGI [29]: > 100 µM
TGI [30]: > 100 µM
TGI [31]: > 100 µM
TGI [32]: > 100 µM
TGI [33]: > 100 µM
TGI [34]: > 100 µM
TGI [35]: > 100 µM
TGI [36]: > 100 µM
TGI [37]: > 100 µM
TGI [38]: > 100 µM
TGI [39]: > 100 µM
TGI [40]: > 100 µM
TGI [41]: > 100 µM
TGI [42]: > 100 µM
TGI [43]: > 100 µM
TGI [44]: > 100 µM
TGI [45]: > 100 µM
TGI [46]: > 100 µM
TGI [47]: > 100 µM
TGI [49]: > 100 µM
TGI [50]: > 100 µM
TGI [51]: > 100 µM
TGI [52]: > 100 µM
TGI [53]: > 100 µM
TGI [54]: > 100 µM
TGI [55]: > 100 µM
TGI [56]: > 100 µM
TGI [57]: > 100 µM
TGI [58]: > 100 µM

Nc1ccc(Oc2ccc(C34CC5CC6C3CC3CC4C(C5)C6(c4ccc(Oc5ccc(N)cc5)cc4)C3)cc2)cc1
TGI [1]: > 100 µM
TGI [2]: > 100 µM
TGI [3]: > 100 µM
TGI [4]: 14.9 µM
TGI [5]: 28.3 µM
TGI [6]: 48 µM
TGI [7]: > 81.5 µM
TGI [8]: 65.7 µM
TGI [9]: 53.9 µM
TGI [11]: 2.81 µM
TGI [12]: > 76.1 µM
TGI [13]: 61.2 µM
TGI [14]: > 100 µM
TGI [15]: 45.2 µM
TGI [16]: 19.1 µM
TGI [17]: 21.4 µM
TGI [59]: 22 µM
TGI [18]: > 83.8 µM
TGI [19]: > 68.6 µM
TGI [20]: > 100 µM
TGI [21]: 81.4 µM
TGI [22]: > 100 µM
TGI [23]: > 100 µM
TGI [24]: 47.8 µM
TGI [25]: 40.1 µM
TGI [26]: > 63.6 µM
TGI [27]: > 100 µM
TGI [28]: > 81.2 µM
TGI [29]: > 100 µM
TGI [30]: > 87.9 µM
TGI [31]: > 67.5 µM
TGI [32]: > 32.5 µM
TGI [33]: 19 µM
TGI [35]: > 82.8 µM
TGI [37]: 47.5 µM
TGI [38]: 47.7 µM
TGI [39]: 53.6 µM
TGI [40]: 29.7 µM
TGI [41]: > 77.8 µM
TGI [42]: > 100 µM
TGI [43]: > 61.4 µM
TGI [44]: 51.7 µM
TGI [45]: > 100 µM
TGI [46]: 23.6 µM
TGI [47]: 55.7 µM
TGI [48]: 38.9 µM
TGI [49]: > 82.9 µM
TGI [50]: 5.27 µM
TGI [51]: > 78.8 µM
TGI [52]: 11.7 µM
TGI [53]: > 72 µM
TGI [54]: > 100 µM
TGI [55]: 41.1 µM
TGI [56]: > 100 µM
TGI [57]: 40.5 µM
TGI [58]: 71.4 µM
